Values of other authors, collected in patent publication US20230399688A1, “COMPOSITIONS AND M[…] FOR COUPLED CELL-FREE TRANSCRIPTION-T[…] PROTEIN SYNTHESIS AND METHODS FOR USING THEM” (GENOMATICA, INC., priority 2015, published 2023).

Test system: human cancer cell lines
Conditions: in comparison to the parent drug, MTM

Q: With `CO[C@@H]([C@@H]1Cc2cc3cc(O[C@H]4C[C@@H](O[C@H]5C[C@@H](O)[C@H](O)[C@@H](C)O5)[C@H](O)[C@@H](C)O4)c(C)c(O)c3c(O)c2C(=O)[C@H]1O[C@H]1C[C@@H](O[C@H]2C[C@@H](O[C@H]3C[C@](C)(O)[C@H](O)[C@@H](C)O3)[C@@H](O)[C@@H](C)O2)[C@H](O)[C@@H](C)O1)[C@@H](O)C(C)=O` [MTM-SK, mithramycin SK] as the compound, how does the therapeutic index read?
A: improved therapeutic index
